Patent publication US6039931A, “Derivatized DTPA complexes, pharmaceutical agents containing these compounds, their use, and processes for their production” (Schering Aktiengesellschaft, priority 1989, dated 2000)

Key:
[1] = tested on: male hairless rat (Lew/Mol), Brown Pearce tumor; experiment: in vivo NMR imaging (spin echo, 2 tesla) after i.v. administration, rat with Brown Pearce tumor in the thigh; conditions: 0.06 mmol/kg i.v.
Excerpt: Spin echo scans were made with the NMR tomograph (CSI 2 T) at 2 tesla (TR time of 400 ms and TE time of 20 ms).

[2] = tested on: female rats of the strain Lew/Mol; experiment: in vivo MRI imaging (T1-weighted spin echo, 2 tesla) after i.v. administration, 3 compounds; design: species or system rat (Lew/Mol); conditions: 0.1 mmol Gd/kg i.v.
Excerpt: The test animals were female rats of the strain Lew/Mol weighing 160-180 g. Prior to imaging, the animals were anesthetized ("Rompun"+"Ketavet") and provided with a catheter in the caudal vein to administer the contrast medium. Imaging took place in an MRI experimental device by General Electric (field strength 2 tesla). First of all, the images (7, 9, 11) were made without contrast medium with a T1 -weighted spin echo sequence (TR=400 msec, TE=20 msec, axial section plane, layer thickness 3 mm). The liver appears in each case with the normal signal intensity; the stomach is […] in tendency than the liver. […] This is due to feed residues, the feed containing manganese in relatively high concentrations (at the time of the test, the animals had been fasting for 6 hours) . Animal 3 had been implanted with an osteogenic sarcoma three weeks previously; this sarcoma was of equal contrast in the blank image and could not be defined. The administration of contrast medium took place via the venous catheter with a dose of 0.1 mmol Gd/kg (concentration of the solutions 0.05 mmol Gd/ml in 0.9% NaCl) for all 3 compounds.

[3] = T1 relaxation (relaxivity) in water and in plasma; format: physicochemical
[4] = tested on: female rats of the strain Lew/Mol; conditions: at this point in time after administration; commercial contrast medium; cited from earlier work

Compound: COc1ccc(CC(CN(CCN(CC(=O)[O-])CC(=O)[O-])CC(=O)[O-])N(CC(=O)[O-])CC(=O)[O-])cc1.[Gd+3].[Na+].[Na+] (stereo not drawn) [Example 1(c) disodium salt, Gadolinium Complex of 3,6,9-Triaza-3,6,9-tris(carboxymethyl)-4-(4-methoxybenzyl)undecanedioic Acid]
- enhancement in the urinary bladder ([1]; 1 minute after administration): the first enhancement is already apparent in the urinary bladder
- increase in contrast in the stomach ([1]; 45 minutes after injection): A strong increase in contrast is visible in the stomach
- visualization of the tumor, of the urinary bladder, and of the stomach ([1]; 60 minutes after injection): A good visualization of the tumor (at the level of the reference tube) of the urinary bladder, and of the stomach
- contrasting of the renal pelvis ([1]; 60 minutes, further improved 65 minutes after injection in a different layer): Contrasting of the renal pelvis is also striking
- contrast enhancement in an axial scan in the zone of the liver ([1]; 180 minutes after injection): the contrast enhancement is likewise clearly recognizable

Compound: CCOc1ccc(CC(CN(CCN(CC(=O)[O-])CC(=O)[O-])CC(=O)[O-])N(CC(=O)[O-])CC(=O)[O-])cc1.[Gd+3].[Na+].[Na+] (stereo not drawn) [Example 8(c), Disodium Salt of the Gadolinium Complex of 3,6,9-Triaza-3,6,9-tris(carboxymethyl)-4-(4-ethoxybenzyl)undecanedioic Acid]
- enhancement of the stomach, ranking among the 3 compounds [2]: least
- enhancement of the liver ([2]; after 90 minutes): A marked enhancement of the liver

Compound: CCCCOc1ccc(CC(CN(CCN(CC(=O)[O-])CC(=O)[O-])CC(=O)[O-])N(CC(=O)[O-])CC(=O)[O-])cc1.[Gd+3].[Na+].[Na+] (stereo not drawn) [Example 9(c), Disodium Salt of the Gadolinium Complex of 3,6,9-Triaza-3,6,9-tris(carboxymethyl)-4-(4-butoxybenzyl)undecanedioic Acid]
- enhancement of the liver ([2]; after 60 minutes): A marked enhancement of the liver
- T1 relaxation ([3]; in plasma): 14.20 ± 0.98 mmol⁻¹ s⁻¹
- T1 relaxation ([3]; in water): 5.80 ± 0.26 mmol⁻¹ s⁻¹

Compound: O=C([O-])CN(CCN(CC(=O)[O-])CC(Cc1ccc(OCc2ccccc2)cc1)N(CC(=O)[O-])CC(=O)[O-])CC(=O)[O-].[Gd+3].[Na+].[Na+] (stereo not drawn) [Example 10(c), Disodium Salt of the Gadolinium Complex of 3,6,9-Triaza-3,6,9-tris(carboxymethyl)-4-(4-benzyloxybenzyl)undecanedioic Acid]
- enhancement of the stomach, ranking among the 3 compounds [2]: most strongly
- enhancement of the liver ([2]; after 60 minutes): A marked enhancement of the liver
- absorption of the contrast medium by the tumor (implanted osteogenic sarcoma) ([2]; animal 3, 60 minutes): has not absorbed the contrast medium at all, or only to a lesser proportion
- visibility of the tumor (implanted osteogenic sarcoma) ([2]; animal 3, 60 minutes): the tumor is now additionally clearly visible

Compound: CNC[C@H](O)[C@@H](O)[C@H](O)[C@H](O)CO.CNC[C@H](O)[C@@H](O)[C@H](O)[C@H](O)CO.O=C([O-])CN(CCN(CC(=O)[O-])CC(=O)O)CCN(CC(=O)[O-])CC(=O)O.[Gd+3] [Magnevist, dimeglumine salt of Gd DTPA [gadolinium(III)complex of diethylenetriaminepentaacetic acid]]
- enhancement of the liver (uptake by the hepatocytes), comparison [4]: cannot be observed at this point in time after administration
